Reference: patent US9714244B2, “Substituted pyrido[4,3-d]pyrimidines as Wee-1 inhibitors” (ALMAC DISCOVERY LIMITED, priority 2013, dated 2017)

Columns and labels:
[1] = target: PRKCB1 (PKC beta I) (Homo sapiens (Human), UniProt P05771); experiment: SelectScreen Kinase Profiling: PRKCB1; assay type: biochemical; conditions: 300-350 nM
From the text: (§1) Table 2 below highlights the selectivity of a representative compound of the invention against a panel of 50 kinases (assessed using the Invitrogen SelectScreen® Kinase Profiling Service).

[2] = target: RPS6KB1 (p70S6K) (Homo sapiens (Human), UniProt P23443); experiment: SelectScreen Kinase Profiling: RPS6KB1; assay type: biochemical; conditions: 300-350 nM
From the text: as §1

[3] = target: CSNK2A1 (CK2 alpha 1) (Homo sapiens (Human), UniProt P68400); experiment: SelectScreen Kinase Profiling: CSNK2A1; assay type: biochemical; conditions: 300-350 nM
From the text: as §1

[4] = target: CSNK1G2 (CK1 gamma 2) (Homo sapiens (Human), UniProt P78368); experiment: SelectScreen Kinase Profiling: CSNK1G2; assay type: biochemical; conditions: 300-350 nM
From the text: as §1

[5] = target: LCK (Homo sapiens (Human), UniProt P06239); experiment: SelectScreen Kinase Profiling: LCK; assay type: biochemical; conditions: 300-350 nM
From the text: as §1

[6] = target: MAP4K4 (HGK) (Homo sapiens (Human), UniProt O95819); experiment: SelectScreen Kinase Profiling: MAP4K4; assay type: biochemical; conditions: 300-350 nM
MAP4K4 (HGK), sequence (O95819 whole entry): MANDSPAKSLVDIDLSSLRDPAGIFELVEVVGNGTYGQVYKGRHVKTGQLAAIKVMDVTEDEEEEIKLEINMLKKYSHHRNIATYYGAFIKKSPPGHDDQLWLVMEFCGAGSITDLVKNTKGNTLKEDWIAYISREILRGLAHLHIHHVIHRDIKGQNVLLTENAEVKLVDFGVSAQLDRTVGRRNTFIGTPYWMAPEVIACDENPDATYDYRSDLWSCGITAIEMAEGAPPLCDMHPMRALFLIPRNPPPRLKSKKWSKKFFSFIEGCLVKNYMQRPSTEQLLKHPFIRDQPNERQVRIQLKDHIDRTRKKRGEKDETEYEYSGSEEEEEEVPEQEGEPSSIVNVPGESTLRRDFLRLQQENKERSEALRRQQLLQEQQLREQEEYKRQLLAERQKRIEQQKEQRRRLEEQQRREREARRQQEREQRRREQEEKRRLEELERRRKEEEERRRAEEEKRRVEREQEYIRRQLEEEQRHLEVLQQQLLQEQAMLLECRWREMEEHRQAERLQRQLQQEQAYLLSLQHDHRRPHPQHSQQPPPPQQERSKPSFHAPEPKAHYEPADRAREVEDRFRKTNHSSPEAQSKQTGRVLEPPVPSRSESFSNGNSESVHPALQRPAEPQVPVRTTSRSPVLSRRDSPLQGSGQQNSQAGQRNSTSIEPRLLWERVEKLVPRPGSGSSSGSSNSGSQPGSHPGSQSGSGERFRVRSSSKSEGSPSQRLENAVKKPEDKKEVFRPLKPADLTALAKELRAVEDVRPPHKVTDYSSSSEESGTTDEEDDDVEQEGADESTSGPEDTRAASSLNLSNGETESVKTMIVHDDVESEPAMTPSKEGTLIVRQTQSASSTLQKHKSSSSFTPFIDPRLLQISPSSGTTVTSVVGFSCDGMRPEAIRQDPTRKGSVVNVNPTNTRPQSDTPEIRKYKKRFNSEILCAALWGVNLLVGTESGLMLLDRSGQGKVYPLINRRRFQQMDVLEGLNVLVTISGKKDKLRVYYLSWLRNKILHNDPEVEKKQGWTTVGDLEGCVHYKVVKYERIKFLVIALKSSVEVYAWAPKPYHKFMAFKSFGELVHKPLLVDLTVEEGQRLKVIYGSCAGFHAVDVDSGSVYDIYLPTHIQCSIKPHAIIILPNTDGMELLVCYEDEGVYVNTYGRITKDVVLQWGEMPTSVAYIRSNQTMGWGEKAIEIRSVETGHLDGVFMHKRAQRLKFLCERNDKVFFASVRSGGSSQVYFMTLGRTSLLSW
From the text: as §1

[7] = target: FRAP1 (mTOR) (Homo sapiens (Human), UniProt P42345); experiment: SelectScreen Kinase Profiling: FRAP1; assay type: biochemical; conditions: 300-350 nM
From the text: as §1

[8] = target: CHEK1 (CHK1) (Homo sapiens (Human), UniProt O14757); experiment: SelectScreen Kinase Profiling: CHEK1; assay type: biochemical; conditions: 300-350 nM
From the text: as §1

[9] = target: PHKG2 (Homo sapiens (Human), UniProt P15735); experiment: SelectScreen Kinase Profiling: PHKG2; assay type: biochemical; conditions: 300-350 nM
From the text: as §1

[10] = target: FGFR1 (Homo sapiens (Human), UniProt P11362); experiment: SelectScreen Kinase Profiling: FGFR1; assay type: biochemical; conditions: 300-350 nM
From the text: as §1

[11] = target: BTK (Homo sapiens (Human), UniProt Q06187); experiment: SelectScreen Kinase Profiling: BTK; assay type: biochemical; conditions: 300-350 nM
From the text: as §1

[12] = target: KIT (Homo sapiens (Human), UniProt P10721); experiment: SelectScreen Kinase Profiling: KIT; assay type: biochemical; conditions: 300-350 nM
From the text: as §1

[13] = target: PLK1 (Homo sapiens (Human), UniProt P53350); experiment: SelectScreen Kinase Profiling: PLK1; assay type: biochemical; conditions: 300-350 nM
From the text: as §1

[14] = target: PAK4 (Homo sapiens (Human), UniProt O96013); experiment: SelectScreen Kinase Profiling: PAK4; assay type: biochemical; conditions: 300-350 nM
From the text: as §1

[15] = target: IKBKB (IKK beta) (Homo sapiens (Human), UniProt O14920); experiment: SelectScreen Kinase Profiling: IKBKB; assay type: biochemical; conditions: 300-350 nM
From the text: as §1

[16] = target: MAPK14 (p38 alpha) (Homo sapiens (Human), UniProt Q16539); experiment: SelectScreen Kinase Profiling: MAPK14; assay type: biochemical; conditions: 300-350 nM
From the text: as §1

[17] = target: FLT3 (Homo sapiens (Human), UniProt P36888); experiment: SelectScreen Kinase Profiling: FLT3; assay type: biochemical; conditions: 300-350 nM
FLT3, sequence (P36888 27-993): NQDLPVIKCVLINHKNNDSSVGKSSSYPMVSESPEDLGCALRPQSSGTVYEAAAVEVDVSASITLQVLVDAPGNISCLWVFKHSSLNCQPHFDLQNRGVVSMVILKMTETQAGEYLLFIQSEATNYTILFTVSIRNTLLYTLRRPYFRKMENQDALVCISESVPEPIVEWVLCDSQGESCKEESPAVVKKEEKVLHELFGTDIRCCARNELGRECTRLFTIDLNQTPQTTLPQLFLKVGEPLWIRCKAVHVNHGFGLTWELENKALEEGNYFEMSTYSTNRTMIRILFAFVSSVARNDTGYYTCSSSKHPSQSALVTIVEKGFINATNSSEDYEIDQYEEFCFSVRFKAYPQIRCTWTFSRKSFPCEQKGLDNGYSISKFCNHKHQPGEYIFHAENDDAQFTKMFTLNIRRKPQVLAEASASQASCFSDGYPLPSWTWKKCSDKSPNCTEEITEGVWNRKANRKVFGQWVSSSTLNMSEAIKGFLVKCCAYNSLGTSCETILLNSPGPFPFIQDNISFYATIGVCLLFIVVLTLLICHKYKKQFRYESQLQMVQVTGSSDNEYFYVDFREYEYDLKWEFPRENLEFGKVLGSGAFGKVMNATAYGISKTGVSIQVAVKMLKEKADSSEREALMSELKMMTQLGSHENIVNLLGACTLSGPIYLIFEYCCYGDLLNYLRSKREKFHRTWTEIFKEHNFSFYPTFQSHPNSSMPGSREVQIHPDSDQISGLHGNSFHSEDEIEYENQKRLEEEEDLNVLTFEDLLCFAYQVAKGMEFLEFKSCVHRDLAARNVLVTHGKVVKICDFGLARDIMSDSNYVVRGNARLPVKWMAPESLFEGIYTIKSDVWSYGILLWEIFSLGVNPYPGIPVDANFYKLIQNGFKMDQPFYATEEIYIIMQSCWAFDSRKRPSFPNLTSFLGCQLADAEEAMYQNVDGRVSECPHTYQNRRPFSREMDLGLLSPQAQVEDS
From the text: as §1

[18] = target: IGF1R (Homo sapiens (Human), UniProt P08069); experiment: SelectScreen Kinase Profiling: IGF1R; assay type: biochemical; conditions: 300-350 nM
From the text: as §1

[19] = target: MAP2K1 (MEK1) (Homo sapiens (Human), UniProt Q02750); experiment: SelectScreen Kinase Profiling: MAP2K1; assay type: biochemical; conditions: 300-350 nM
From the text: as §1

[20] = target: JAK3 (Homo sapiens (Human), UniProt P52333); experiment: SelectScreen Kinase Profiling: JAK3; assay type: biochemical; conditions: 300-350 nM
From the text: as §1

[21] = target: ABL1 (Homo sapiens (Human), UniProt P00519); experiment: SelectScreen Kinase Profiling: ABL1; assay type: biochemical; conditions: 300-350 nM
From the text: as §1

[22] = target: MET (cMet) (Homo sapiens (Human), UniProt P08581); experiment: SelectScreen Kinase Profiling: MET; assay type: biochemical; conditions: 300-350 nM
From the text: as §1

[23] = target: PRKACA (PKA) (Homo sapiens (Human), UniProt P17612); experiment: SelectScreen Kinase Profiling: PRKACA; assay type: biochemical; conditions: 300-350 nM
From the text: as §1

[24] = target: IRAK4 (Homo sapiens (Human), UniProt Q9NWZ3); experiment: SelectScreen Kinase Profiling: IRAK4; assay type: biochemical; conditions: 300-350 nM
From the text: as §1

[25] = target: NTRK1 (TRKA) (Homo sapiens (Human), UniProt P04629); experiment: SelectScreen Kinase Profiling: NTRK1; assay type: biochemical; conditions: 300-350 nM
From the text: as §1

[26] = target: INSR (Homo sapiens (Human), UniProt P06213); experiment: SelectScreen Kinase Profiling: INSR; assay type: biochemical; conditions: 300-350 nM
From the text: as §1

[27] = target: SYK (Homo sapiens (Human), UniProt P43405); experiment: SelectScreen Kinase Profiling: SYK; assay type: biochemical; conditions: 300-350 nM
From the text: as §1

[28] = target: Src (Homo sapiens (Human), UniProt P12931); experiment: SelectScreen Kinase Profiling: SRC; assay type: biochemical; conditions: 300-350 nM
[29] = target: MAPKAPK2 (Homo sapiens (Human), UniProt P49137); experiment: SelectScreen Kinase Profiling: MAPKAPK2; assay type: biochemical; conditions: 300-350 nM
From the text: as §1

[30] = target: GSK3B (GSK3 beta) (Homo sapiens (Human), UniProt P49841); experiment: SelectScreen Kinase Profiling: GSK3B; assay type: biochemical; conditions: 300-350 nM
From the text: as §1

[31] = target: ACVR1B (ALK4) (Homo sapiens (Human), UniProt P36896); experiment: SelectScreen Kinase Profiling: ACVR1B; assay type: biochemical; conditions: 300-350 nM
ACVR1B (ALK4), sequence (P36896 24-505): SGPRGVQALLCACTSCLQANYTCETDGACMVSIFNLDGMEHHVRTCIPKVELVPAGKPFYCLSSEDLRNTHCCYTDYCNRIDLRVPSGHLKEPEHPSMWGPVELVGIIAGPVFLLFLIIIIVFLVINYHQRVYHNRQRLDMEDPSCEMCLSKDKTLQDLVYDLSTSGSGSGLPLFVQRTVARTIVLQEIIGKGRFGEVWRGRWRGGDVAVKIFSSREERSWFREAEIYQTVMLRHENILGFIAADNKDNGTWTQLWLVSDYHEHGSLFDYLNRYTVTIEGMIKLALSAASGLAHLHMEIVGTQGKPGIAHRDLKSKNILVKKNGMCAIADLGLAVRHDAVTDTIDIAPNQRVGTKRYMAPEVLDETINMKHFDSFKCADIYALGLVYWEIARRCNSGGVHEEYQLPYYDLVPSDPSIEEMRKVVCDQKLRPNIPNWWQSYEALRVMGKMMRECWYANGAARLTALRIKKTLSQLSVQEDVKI
From the text: as §1

[32] = target: MAPK1 (ERK2) (Homo sapiens (Human), UniProt P28482); experiment: SelectScreen Kinase Profiling: MAPK1; assay type: biochemical; conditions: 300-350 nM
From the text: as §1

[33] = target: PIM1 (Homo sapiens (Human), UniProt P11309); experiment: SelectScreen Kinase Profiling: PIM1; assay type: biochemical; conditions: 300-350 nM
PIM1, sequence (P11309 whole entry): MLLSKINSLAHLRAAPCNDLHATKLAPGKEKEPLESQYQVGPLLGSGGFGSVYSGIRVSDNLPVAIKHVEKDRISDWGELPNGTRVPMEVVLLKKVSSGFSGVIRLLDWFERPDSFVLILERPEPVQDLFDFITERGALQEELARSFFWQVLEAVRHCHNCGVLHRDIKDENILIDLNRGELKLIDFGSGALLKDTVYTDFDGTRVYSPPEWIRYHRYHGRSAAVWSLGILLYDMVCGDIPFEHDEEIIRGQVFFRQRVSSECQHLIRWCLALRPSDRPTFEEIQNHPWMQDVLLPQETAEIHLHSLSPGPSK
From the text: as §1

[34] = target: ROCK1 (Homo sapiens (Human), UniProt Q13464); experiment: SelectScreen Kinase Profiling: ROCK1; assay type: biochemical; conditions: 300-350 nM
From the text: as §1

[35] = test system: Src; conditions: quoted in column head, BMCL 2005 p1931; cited from earlier work
[36] = target: NEK1 (Homo sapiens (Human), UniProt Q96PY6); experiment: SelectScreen Kinase Profiling: NEK1; assay type: biochemical; conditions: 300-350 nM
From the text: as §1

[37] = target: RET (Homo sapiens (Human), UniProt P07949); experiment: SelectScreen Kinase Profiling: RET; assay type: biochemical; conditions: 300-350 nM
From the text: as §1

[38] = target: MARK2 (Homo sapiens (Human), UniProt Q7KZI7); experiment: SelectScreen Kinase Profiling: MARK2; assay type: biochemical; conditions: 300-350 nM
From the text: as §1

[39] = target: AKT1 (PKB alpha) (Homo sapiens (Human), UniProt P31749); experiment: SelectScreen Kinase Profiling: AKT1; assay type: biochemical; conditions: 300-350 nM
From the text: as §1

[40] = target: AURKA (Aurora A) (Homo sapiens (Human), UniProt O14965); experiment: SelectScreen Kinase Profiling: AURKA; assay type: biochemical; conditions: 300-350 nM
From the text: as §1

[41] = target: MAPK8 (JNK1) (Homo sapiens (Human), UniProt P45983); experiment: SelectScreen Kinase Profiling: MAPK8; assay type: biochemical; conditions: 300-350 nM
From the text: as §1

[42] = target: ERBB2 (HER2) (Homo sapiens (Human), UniProt P04626); experiment: SelectScreen Kinase Profiling: ERBB2; assay type: biochemical; conditions: 300-350 nM
From the text: as §1

[43] = target: EPHA2 (Homo sapiens (Human), UniProt P29317); experiment: SelectScreen Kinase Profiling: EPHA2; assay type: biochemical; conditions: 300-350 nM
From the text: as §1

[44] = target: DYRK3 (Homo sapiens (Human), UniProt O43781); experiment: SelectScreen Kinase Profiling: DYRK3; assay type: biochemical; conditions: 300-350 nM
From the text: as §1

[45] = target: TEK (Tie2) (Homo sapiens (Human), UniProt Q02763); experiment: SelectScreen Kinase Profiling: TEK; assay type: biochemical; conditions: 300-350 nM
From the text: as §1

[46] = target: KDR (VEGFR2) (Homo sapiens (Human), UniProt P35968); experiment: SelectScreen Kinase Profiling: KDR; assay type: biochemical; conditions: 300-350 nM
KDR (VEGFR2), sequence (P35968 20-1356): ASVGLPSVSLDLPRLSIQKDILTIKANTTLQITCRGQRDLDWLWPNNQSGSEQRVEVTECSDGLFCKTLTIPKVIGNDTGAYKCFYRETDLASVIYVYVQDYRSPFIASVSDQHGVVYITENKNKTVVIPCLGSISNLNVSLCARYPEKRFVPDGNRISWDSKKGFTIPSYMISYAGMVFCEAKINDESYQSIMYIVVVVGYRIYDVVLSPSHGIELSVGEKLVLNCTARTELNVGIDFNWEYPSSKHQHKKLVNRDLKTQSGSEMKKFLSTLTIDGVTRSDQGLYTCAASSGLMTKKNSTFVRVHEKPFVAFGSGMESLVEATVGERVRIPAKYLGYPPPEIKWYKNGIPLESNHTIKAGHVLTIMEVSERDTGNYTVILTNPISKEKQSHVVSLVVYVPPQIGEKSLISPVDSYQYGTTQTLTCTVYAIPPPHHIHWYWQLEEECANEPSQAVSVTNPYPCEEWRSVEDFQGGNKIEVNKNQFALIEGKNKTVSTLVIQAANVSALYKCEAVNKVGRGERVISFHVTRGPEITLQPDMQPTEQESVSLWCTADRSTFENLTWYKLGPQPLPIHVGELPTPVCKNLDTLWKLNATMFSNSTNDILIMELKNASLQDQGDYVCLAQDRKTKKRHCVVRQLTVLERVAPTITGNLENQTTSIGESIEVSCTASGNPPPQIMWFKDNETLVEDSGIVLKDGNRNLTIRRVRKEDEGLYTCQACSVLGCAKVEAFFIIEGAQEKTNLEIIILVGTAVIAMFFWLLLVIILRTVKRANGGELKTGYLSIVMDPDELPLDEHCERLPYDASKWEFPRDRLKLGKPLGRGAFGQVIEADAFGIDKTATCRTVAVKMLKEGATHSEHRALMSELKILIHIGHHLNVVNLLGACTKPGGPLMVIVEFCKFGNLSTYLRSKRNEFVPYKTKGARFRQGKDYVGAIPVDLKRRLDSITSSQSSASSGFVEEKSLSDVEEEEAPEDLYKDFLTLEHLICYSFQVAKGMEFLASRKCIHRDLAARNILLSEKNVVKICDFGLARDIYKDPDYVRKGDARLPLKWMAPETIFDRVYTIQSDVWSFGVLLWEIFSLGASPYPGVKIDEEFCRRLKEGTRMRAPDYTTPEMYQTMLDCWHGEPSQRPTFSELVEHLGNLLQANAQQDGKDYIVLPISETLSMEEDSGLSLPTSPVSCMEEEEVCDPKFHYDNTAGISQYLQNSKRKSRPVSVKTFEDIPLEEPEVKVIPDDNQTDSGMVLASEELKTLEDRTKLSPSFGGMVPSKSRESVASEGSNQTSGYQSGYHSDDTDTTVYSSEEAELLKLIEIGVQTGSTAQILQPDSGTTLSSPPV
From the text: as §1

PRKCB1 (PKC beta I), sequence (P05771 whole entry): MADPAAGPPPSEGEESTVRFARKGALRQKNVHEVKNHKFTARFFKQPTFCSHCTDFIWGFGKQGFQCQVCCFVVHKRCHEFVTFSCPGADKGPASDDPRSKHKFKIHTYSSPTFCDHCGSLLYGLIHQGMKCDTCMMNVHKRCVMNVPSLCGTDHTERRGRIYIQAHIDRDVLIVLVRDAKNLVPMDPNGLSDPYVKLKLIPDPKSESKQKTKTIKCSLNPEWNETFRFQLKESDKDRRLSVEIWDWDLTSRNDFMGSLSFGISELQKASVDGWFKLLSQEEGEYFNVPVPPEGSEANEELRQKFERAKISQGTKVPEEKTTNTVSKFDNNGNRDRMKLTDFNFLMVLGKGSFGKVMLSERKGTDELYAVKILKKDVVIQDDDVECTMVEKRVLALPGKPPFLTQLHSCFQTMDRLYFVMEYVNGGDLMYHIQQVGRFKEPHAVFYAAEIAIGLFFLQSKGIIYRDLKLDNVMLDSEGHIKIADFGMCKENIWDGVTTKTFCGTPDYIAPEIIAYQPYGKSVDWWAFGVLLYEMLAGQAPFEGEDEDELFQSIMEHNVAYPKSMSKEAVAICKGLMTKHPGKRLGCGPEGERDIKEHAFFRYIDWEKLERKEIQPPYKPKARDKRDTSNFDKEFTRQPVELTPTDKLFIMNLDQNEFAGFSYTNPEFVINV

In the case of `CCN(CC)CCOc1ccc(Nc2ncc3cc(-c4c(Cl)cccc4Cl)c(=O)n(C)c3n2)cc1` [Compound 1 BMCL, 2005, p1931, reference compound], the “Inhibition PRKCB1 (PKC beta I)” value [1] is reported as “− (Inhibition <75% @ 300-350 nM)”, the “Inhibition RPS6KB1 (p70S6K)” value [2] is reported as “− (Inhibition <75% @ 300-350 nM)” and the “Inhibition CSNK2A1 (CK2 alpha 1)” value [3] is reported as “− (Inhibition <75% @ 300-350 nM)”. For the same molecule, the “Inhibition CSNK1G2 (CK1 gamma 2)” value [4] was “− (Inhibition <75% @ 300-350 nM)”, the “Inhibition LCK” value [5] was “+ (Inhibition >75% at 300-350 nM)” and the “Inhibition MAP4K4 (HGK)” value [6] was “+ (Inhibition >75% at 300-350 nM)”. The “Inhibition FRAP1 (mTOR)” value [7] was “− (Inhibition <75% @ 300-350 nM)”, the “Inhibition CHEK1 (CHK1)” value [8] was “− (Inhibition <75% @ 300-350 nM)” and the “Inhibition PHKG2” value [9] was “− (Inhibition <75% @ 300-350 nM)”. For the same molecule, the “Inhibition FGFR1” value [10] was “+ (Inhibition >75% at 300-350 nM)”, the “Inhibition BTK” value [11] was “+ (Inhibition >75% at 300-350 nM)” and the “Inhibition KIT” value [12] was “+ (Inhibition >75% at 300-350 nM)”. The “Inhibition PLK1” value [13] was “− (Inhibition <75% @ 300-350 nM)”, the “Inhibition PAK4” value [14] was “− (Inhibition <75% @ 300-350 nM)” and the “Inhibition IKBKB (IKK beta)” value [15] was “− (Inhibition <75% @ 300-350 nM)”. The “Inhibition MAPK14 (p38 alpha)” value [16] was “+ (Inhibition >75% at 300-350 nM)”, the “Inhibition FLT3” value [17] was “+ (Inhibition >75% at 300-350 nM)” and the “Inhibition IGF1R” value [18] was “− (Inhibition <75% @ 300-350 nM)”. For the same molecule, the “Inhibition MAP2K1 (MEK1)” value [19] was “− (Inhibition <75% @ 300-350 nM)”, the “Inhibition JAK3” value [20] was “+ (Inhibition >75% at 300-350 nM)” and the “Inhibition ABL1” value [21] was “+ (Inhibition >75% at 300-350 nM)”. The “Inhibition MET (cMet)” value [22] was “− (Inhibition <75% @ 300-350 nM)”, the “Inhibition PRKACA (PKA)” value [23] was “− (Inhibition <75% @ 300-350 nM)” and the “Inhibition IRAK4” value [24] was “− (Inhibition <75% @ 300-350 nM)”. For the same molecule, the “Inhibition NTRK1 (TRKA)” value [25] was “− (Inhibition <75% @ 300-350 nM)”, the “Inhibition INSR” value [26] was “− (Inhibition <75% @ 300-350 nM)” and the “Inhibition SYK” value [27] was “− (Inhibition <75% @ 300-350 nM)”. The “Inhibition SRC” value [28] was “+ (Inhibition >75% at 300-350 nM)”, the “Inhibition MAPKAPK2” value [29] was “− (Inhibition <75% @ 300-350 nM)” and the “Inhibition GSK3B (GSK3 beta)” value [30] was “− (Inhibition <75% @ 300-350 nM)”. For the same molecule, the “Inhibition ACVR1B (ALK4)” value [31] was “+ (Inhibition >75% at 300-350 nM)”, the “Inhibition MAPK1 (ERK2)” value [32] was “− (Inhibition <75% @ 300-350 nM)” and the “Inhibition PIM1” value [33] was “− (Inhibition <75% @ 300-350 nM)”. For the same molecule, the “Inhibition ROCK1” value [34] was “− (Inhibition <75% @ 300-350 nM)”, the IC50 [35] was 6 nM and the “Inhibition NEK1” value [36] was “− (Inhibition <75% @ 300-350 nM)”. The “Inhibition RET” value [37] was “+ (Inhibition >75% at 300-350 nM)”, the “Inhibition MARK2” value [38] was “+ (Inhibition >75% at 300-350 nM)” and the “Inhibition AKT1 (PKB alpha)” value [39] was “− (Inhibition <75% @ 300-350 nM)”. For the same molecule, the “Inhibition AURKA (Aurora A)” value [40] was “− (Inhibition <75% @ 300-350 nM)”, the “Inhibition MAPK8 (JNK1)” value [41] was “− (Inhibition <75% @ 300-350 nM)” and the “Inhibition ERBB2 (HER2)” value [42] was “− (Inhibition <75% @ 300-350 nM)”. For the same molecule, the “Inhibition EPHA2” value [43] was “+ (Inhibition >75% at 300-350 nM)”, the “Inhibition DYRK3” value [44] was “− (Inhibition <75% @ 300-350 nM)” and the “Inhibition TEK (Tie2)” value [45] was “− (Inhibition <75% @ 300-350 nM)”. For the same molecule, the “Inhibition KDR (VEGFR2)” value [46] was “+ (Inhibition >75% at 300-350 nM)”.
